We go through two compounds from US9840478B2 (MERCK SHARP & DOHME CORP., priority 2013, dated 2017).

One assay has as its target T1, wildtype HIV-1 protease (Human immunodeficiency virus type 1 group M subtype B, UniProt P04585).
T1 construct: preincubated with the HIV-1 protease (wild type) enzyme in assay buffer; made in house; host or cells: Escherichia coli
Description: Assay for inhibition of microbial expressed HIV protease (Pepcleav). It counts as biochemical. Particulars: wildtype HIV-1 protease expressed in E. coli; peptide substrate; mean of at least two independent experiments. As for the experimental part:
Assay for Inhibition of Microbial Expressed HIV Protease (“Pepcleav”)
Studies of the inhibition of the wildtype HIV-1 protease (which was expressed in Escherichia coli) were carried out with a peptide substrate [Val-Ser-Gln-Asn-(βnaphtyl)Ala-Pro-Ile-Val]. The inhibitor is first preincubated with the HIV-1 protease (wild type) enzyme in assay buffer (50 mM sodium acetate, pH 5.5, 100 mM NaCl, and 0.1% BSA) for 30 minutes at room temperature. Substrate is added to 400 micromolar in a total volume of 20 microliters containing 20 picomolar HIV-1 protease (final) and the reaction is incubated for 1 hour at 30° C. The reaction is quenched with the addition of formic acid and indinavir to 0.012% and 150 nM final concentrations, respectively. The product formation is determined after separation of product and substrate on a Zorbax Eclipse XDB-C18 column connected to an API 4000 mass spectrometer (Applied Biosystems) with multiple reaction monitoring (transitions were 644.5/428.9 and 615.4/422.2 (M1/M3) for product and indinavir respectively). The extent of inhibition of the reaction is determined from the peak area of the products. Analysis of the products, independently synthesized, provided quantitation standards and confirmation of the product composition.

For a further assay, the system named is HIV-1 (H9IIIB strain). Description: Cell-based HIV infection assay using a reporter (Cell-Based), MT4-GFP cells. To be noted: Human immunodeficiency virus 1, MT4-GFP cells infected with HIV-1 H9IIIB; 50% normal human serum; mean of at least two independent experiments; read-out: Cell-based IP. An outline of the steps:
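IC50 from 4-parameter dose-response of % viral growth inhibition, using the 48 h/24 h infected-cell ratio scaled between DMSO and a protease/integrase/NNRTI triple-drug control. Assay used MT4 cells with HIV-LTR-GFP reporter, pre-infected 24 h with HIV-1 H9IIIB, in 50% normal human serum.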

For the compound `CS(=O)(=O)C1CCN(S(=O)(=O)N2CCNC[C@@H]2CCc2c(F)cncc2NC(=O)C[C@@H](c2ccc(F)cc2)c2cc(F)cc(F)c2)CC1` [Example 336, (3S)-3-(3,5-difluorophenyl)-N-(5-fluoro-4-{2-[(2S)-1-{[4-(methylsulfonyl)piperidin-1-yl]sulfonyl}piperazin-2-yl]ethyl}pyridin-3-yl)-3-(4-fluorophenyl)propanamide], the IC50 on wildtype HIV-1 protease was found to be 13 nM; in the assay with HIV-1 (H9IIIB strain) it was 240 nM.
With `O=C(C[C@@H](c1ccc(F)cc1)c1cc(F)cc(F)c1)Nc1cncc(F)c1CC[C@H]1CNCCN1S(=O)(=O)N1CC[C@@H](NC(=O)C(F)(F)F)C1` [Example 338, (3S)-3-(3,5-difluorophenyl)-3-(4-fluorophenyl)-N-(5-fluoro-4-{2-[(2S)-1-({(3R)-3-[(trifluoroacetyl)amino]pyrrolidin-1-yl}sulfonyl)piperazin-2-yl]ethyl}pyridin-3-yl)propanamide], the IC50 on wildtype HIV-1 protease is 130 nM; in the assay on HIV-1 (H9IIIB strain), 660 nM.
